According to patent publication EP4635969A1, “NOVEL GLUCOCORTICOID, METHOD FOR PREPARING SAME, AND USE THEREOF” (Tianjin Pharmaceutical Biotechnology Co., Ltd., priority 2022, dated 2024):
Where two headings read alike, the source gives them in different places.

What was measured:
Type in all cases: cell-based
[1] = target: T1, glucocorticoid receptor (GR) (Homo sapiens, UniProt P04150); experiment: Assay for agonist activity on glucocorticoid receptor (luciferase reporter, HEK293 cells transfected with pBIND-GR plasmid)
T1 sequence (P04150 521-777): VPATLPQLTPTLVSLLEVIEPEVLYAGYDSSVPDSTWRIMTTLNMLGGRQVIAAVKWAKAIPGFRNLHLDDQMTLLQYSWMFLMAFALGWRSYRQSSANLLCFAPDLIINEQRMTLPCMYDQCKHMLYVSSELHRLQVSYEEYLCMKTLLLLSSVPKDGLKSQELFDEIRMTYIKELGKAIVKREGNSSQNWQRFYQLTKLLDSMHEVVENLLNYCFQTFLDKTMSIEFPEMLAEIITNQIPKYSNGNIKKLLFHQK
Method: Pharmacological Example 1: Assay for Agonist Activity on Glucocorticoid Receptor (GR)
The test compounds were subjected to a 4-fold serial dilution starting from an initial concentration of 10 µ M, generating a 10-point concentration gradient with duplicate wells for each concentration. The blank control consisted of 0.1 % DMSO.
(§1) The HEK293 stable cell line […] transfected with glucocorticoid receptor (GR) (ICE Bioscience, Lot No. TYP-20220519) was cultured in Dulbecco's Modified Eagle Medium (DMEM) supplemented with 10% fetal bovine serum (FBS) and 200 µ g/ml Hygromycin B in a cell incubator containing 5% CO2 at 37 °C. The spent medium was aspirated and the cells were washed once with phosphate-buffered saline (PBS). Then, 1 mL of TrypLE™ Express solution was added, and the cells were incubated at 37 °C for approximately 2 min. When the cells detached from the bottom of the cell culture dish, approximately 5 mL of pre-warmed complete medium at 37 °C was added. The cell suspension was gently pipetted with a pipette to dissociate clumped cells. The cell suspension was transferred to a sterile centrifuge tube and centrifuged at 1000 rpm for 5 min to pellet the cells for experiments or subculture.
(§2) HEK293 cells were digested and seeded into 6-cm culture dishes. The pBIND-GR plasmid was transfected into the HEK293 cells using a transfection reagent, resulting in HEK293 cells successfully transfected with the pBIND-GR plasmid. The cells were resuspended in phenol red-free DMEM medium containing 5% charcoal-stripped serum, counted, and then seeded into 96-well plates. The test compounds were added, and the plates were then incubated in an incubator. The luminescence signal values were measured using a multimode microplate reader following the instructions of the luciferase assay kit. The EC50 values of each test compound were calculated using the nonlinear fitting formula with GraphPad Prism 8.0 software.

[2] = target: T2, mineralocorticoid receptor (MR) (Homo sapiens, UniProt P08235); experiment: Assay for agonist activity on mineralocorticoid receptor (luciferase reporter, HEK293 cells transfected with pBIND-MR plasmid); conditions: for EC50: EC50 of agonist activity, HEK293 reporter cells, top concentration 50 µM, read-out: Nuclear receptor enzyme activity (nM) MR; for Target selectivity MR/GR: ratio of EC50 values
T2 sequence (P08235 726-984): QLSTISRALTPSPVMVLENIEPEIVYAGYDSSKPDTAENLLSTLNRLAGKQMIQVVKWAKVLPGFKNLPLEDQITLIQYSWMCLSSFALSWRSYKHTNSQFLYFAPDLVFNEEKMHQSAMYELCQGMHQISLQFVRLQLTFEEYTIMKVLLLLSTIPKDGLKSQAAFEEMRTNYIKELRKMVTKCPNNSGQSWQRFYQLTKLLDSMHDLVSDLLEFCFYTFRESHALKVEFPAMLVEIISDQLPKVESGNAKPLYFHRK
Method: (§3) Pharmacological Example 2: Assay for Agonist Activity on Mineralocorticoid Receptor (MR) and Progesterone Receptor (PR)
(§4) Test compound stock solutions: The test compounds (compounds 4, 5, 7, 8, 9, 11, 13, 16, 17, 18, 22, 23, 24, 34, 35, 36, 38, 41, 45, 47, 53, 55, and 59) were accurately weighed, dissolved in DMSO to prepare stock solutions at a concentration of 20 mM, and stored at -20 °C.
(§5) The test compounds were subjected to a 4-fold serial dilution starting from an initial concentration of 50 µ M, generating a 12-point concentration gradient with duplicate wells for each concentration. The blank control consisted of 0.1% DMSO.
as §1, with “cell lines” for “cell line”, “with mineralocorticoid” for “with glucocorticoid”, “receptor (MR) and progesterone receptor (PR)” for “receptor (GR)”, “No. TYP-20220819, TPJ-20220812) were” for “No. TYP-20220519) was”, “was aspirated,” for “was aspirated”, “or subculture..” for “or subculture.”
as §2, with “pBIND-MR and pBIND-PR plasmids were separately” for “pBIND-GR plasmid was”, “pBIND-MR and pBIND-PR plasmids, respectively.” for “pBIND-GR plasmid.”

[3] = target: T3, progesterone receptor (PR) (Homo sapiens, UniProt P06401); experiment: Assay for agonist activity on progesterone receptor (luciferase reporter, HEK293 cells transfected with pBIND-PR plasmid); conditions: for EC50: EC50 of agonist activity, HEK293 reporter cells, top concentration 50 µM, read-out: Nuclear receptor enzyme activity (nM) PR; for Target selectivity PR/GR: ratio of EC50 values
T3 sequence (P06401 678-933): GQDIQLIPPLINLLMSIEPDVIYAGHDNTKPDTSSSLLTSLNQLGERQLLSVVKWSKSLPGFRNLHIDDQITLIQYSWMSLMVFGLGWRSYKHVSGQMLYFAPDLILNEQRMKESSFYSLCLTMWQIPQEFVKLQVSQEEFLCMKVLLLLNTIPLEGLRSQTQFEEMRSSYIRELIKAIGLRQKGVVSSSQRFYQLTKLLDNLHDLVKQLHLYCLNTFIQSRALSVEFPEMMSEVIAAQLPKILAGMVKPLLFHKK
Method: as §3, §4, §5
as §1, with “cell lines” for “cell line”, “with mineralocorticoid” for “with glucocorticoid”, “receptor (MR) and progesterone receptor (PR)” for “receptor (GR)”, “No. TYP-20220819, TPJ-20220812) were” for “No. TYP-20220519) was”, “was aspirated,” for “was aspirated”, “or subculture..” for “or subculture.”
as §2, with “pBIND-MR and pBIND-PR plasmids were separately” for “pBIND-GR plasmid was”, “pBIND-MR and pBIND-PR plasmids, respectively.” for “pBIND-GR plasmid.”

[4] = EC50 of agonist activity, HEK293 reporter cells, read-out: Nuclear receptor enzyme activity (nM) GR
[5] = HEK293 cells transfected with pBIND-GR, luciferase signal, read-out: GR agonist EC50

| Compound | EC50 [1, 4] | EC50 [1, 5] | EC50 [2] | Target selectivity MR/GR [2] | EC50 [3] | Target selectivity PR/GR [3] |
| --- | --- | --- | --- | --- | --- | --- |
| C[C@]12C=CC(=O)C=C1CC[C@H]1[C@@H]3C[C@H]4OC(c5ccc(CNC6CCOC6=O)cc5)O[C@@]4(C(=O)CO)[C@@]3(C)C[C@H](O)[C@@]12F (stereo partly drawn) [Compound 18, (6aS,6bR,7S,8aS,8bS,11aR,12aS,12bS)-6b-Fluoro-7-hydroxy-8b-(2-hydroxyacetyl)-6a,8a-dimethyl-10-(4-(((2-oxotetrahydrofuran-3-yl)amino)methyl)phenyl)-1,2,6a,6b,7,8,8a,8b,11a,12,12a,12b-dodecahydro-4H-naphtho[2',1':4,5]indeno[1,2-d][1,3]dioxol-4-one] | 1.62 nM | 1.62 nM | > 50000 nM | > 3.1×10^4 | > 50000 nM | > 3.1×10^4 |
| C[C@]12C=CC(=O)C=C1CC[C@H]1[C@@H]3C[C@H]4OC(c5ccc(CSC6CCOC6=O)cc5)O[C@@]4(C(=O)CCl)[C@@]3(C)C[C@H](O)[C@@]12Cl (stereo partly drawn) [Compound 38, (6aS,6bR,7S,8aS,8bS,11aR,12aS,12bS)-6b-chloro-8b-(2-chloroacetyl)-7-hydroxy-6a,8a-dimethyl-10-(4-(((2-oxotetrahydrofuran-3-yl)thio)methyl)phenyl)-1,2,6a,6b,7,8,8a,8b,11a,12,12a,12b-dode cahydro-4H-naphtho[2',1':4,5]indeno[1,2-d][1,3]dioxol-4-one] | 0.11 nM | 0.11 nM | > 50000 nM | > 4.5×10^5 | > 50000 nM | > 4.5×10^5 |
| C[C@]12C=CC(=O)C=C1[C@@H](F)C[C@H]1[C@@H]3C[C@H]4OC(c5ccc(CNC6CCOC6=O)cc5)O[C@@]4(C(=O)CO)[C@@]3(C)C[C@H](O)[C@@]12F (stereo partly drawn) [Compound 9, (2S,6aS,6bR,7S,8aS,8bS,11aR,12aS,12bS)-2,6b-Difluoro-7-hydroxy-8b-(2-hydroxyacetyl)-6a,8a-dimethyl-10-(4-(((2-oxotetrahydrofuran-3-yl)amino)methyl)phenyl)-1,2,6a,6b,7,8,8a,8b,11a,12,12 a,12b-dodecahydro-4H-naphtho[2',1':4,5]indeno[1,2-d][1,3]dioxol-4-one] | 3.27 nM | 3.27 nM | > 50000 nM | > 1.5×10^4 | > 50000 nM | > 1.5×10^4 |
| C[C@]12C=CC(=O)C=C1CC[C@H]1[C@@H]3C[C@H]4OC(C5CCC(SC6CCOC6=O)CC5)O[C@@]4(C(=O)CO)[C@@]3(C)C[C@H](O)[C@@]12F (stereo partly drawn) [Compound 45, (6aS,6bR,7S,8aS,8bS,11aR,12aS,12bS)-6b-Fluoro-7-hydroxy-8b-(2-hydroxyacetyl)-6a,8a-dimethyl-10-(4-((2-oxotetrahydrofuran-3-yl)thio)cyclohexyl)-1,2,6a,6b,7,8,8a,8b,11a,12,12a,12b-dodeca hydro-4H-naphtho[2',1':4,5]indeno[1,2-d][1,3]dioxol-4-one] | 1.62 nM | 1.62 nM | > 50000 nM | > 3.1×10^4 | > 50000 nM | > 3.1×10^4 |
| C[C@]12C=CC(=O)C=C1CC[C@H]1[C@@H]3C[C@H]4OC(c5ccc(COC6COC(=O)C6)cc5)O[C@@]4(C(=O)CO)[C@@]3(C)C[C@H](O)[C@@]12F (stereo partly drawn) [Compound 19, (6aS,6bR,7S,8aS,8bS,11aR,12aS,12bS)-6b-Fluoro-7-hydroxy-8b-(2-hydroxyacetyl)-6a,8a-dimethyl-10-(4-(((5-oxotetrahydrofuran-3-yl)oxy)methyl)phenyl)-1,2,6a,6b,7,8,8a,8b,11a,12,12a,12b-do decahydro-4H-naphtho[2',1':4,5]indeno[1,2-d][1,3]dioxol-4-one] |  | 0.91 nM |  |  |  |  |
